# Measurements from patent US8257478B2, “Use of marine fungus originated compounds as antifouling agents” (The Hong Kong University of Science and Technology, priority 2004, dated 2012).
# What was measured:
# [1] = system: Balanus amphitrite larvae; experiment: in vivo
# Description: (§1) The larval bioassay was conducted according to Rittschof et al. (1994), which is incorporated by reference herein in its entirety.
# (§2) Toxicity of cyclo (D)-Pro-(D)-Phe was determined using 24-well polystyrene plates. Pure compound was dissolved in DMSO and added to autoclaved FSW to form different concentrations. Competent Balanus amphitrites larvae (10±2 individuals) were added to each well with 1 ml testing solution in 5 replicates. The wells containing FSW served as the control. The 24-well plates were incubated at 30° C. for 24 h. The percent mortality was determined by counting the number of dead larvae under a dissecting microscope.
# (§3) The assay was conducted according to Rittschof et al. (1994). Data plotted are means+SD of five replicates.
# [2] = system: barnacle Balanus amphitrite larvae; experiment: anti-larval settlement bioassay in 24-well plates; type: in vivo
# Description: Anti-larval settlement activity of 3-chloro-2,5-dihydroxy benzyl alcohol (compound 1) was conducted using 24-well polystyrene plates. Pure compound was dissolved in DMSO and added to autoclaved FSW at different concentrations. Competent Balanus amphitrites larvae (10±2 individuals) were added to each well with 1 ml testing solution in 5 replicates, and wells containing FSW (filtered seawater) served as control. The 24-well plates were incubated at 30° C. for 24 h. The percent settlement was determined by counting the number of settled larvae under a dissecting microscope. In all bioassays, FSW served as the control. Statistical calculations were performed with the SPSS (Statistical Package for the Social Sciences) software package, Version 11.
# as §1, §3
# For determining anti-larval settlement activity, adult Balanus amphitrile (Darwin) were collected from the intertidal zone in Hong Kong (22°19′N, 114°16′E). Nauplii obtained from several adults were mass-reared to cyprid stage at a density of 2 larvae ml^−1 in 0.22-μm-filtered seawater with 30 ppt salinity (FSW) using Chaetoceros gracilis Schutt as food and a rearing temperature of 28° C. Newly transformed cyprids were used for the experiment.
# Anti-larval settlement activity of succinic acid against B. amphitrite was determined using 24-well polystyrene plates. Pure compound was dissolved in autoclaved FSW ranged from 60-140 μg ml^−1 for B. amphitrite. Competent larvae (15±2 individuals) were added to each well with 1 ml testing solution in 5 replicates, and wells containing FSW served as the control. The 24-well plates were incubated at 30° C. for 24 h. The percent larval settlement was determined by counting the number of settled individuals under a dissecting microscope and expressed as a proportion of the total number of larvae in the well.
# [3] = system: Vibrio fluvialis; experiment: agar disc diffusion assay, inhibition zone; type: cell-based; conditions: 50 μg/disc, 30° C., 24 h, read-out: Inhibition Zone Width
# Description: (§4) Antibacterial activity was tested against bacteria using an agar disc diffusion assay method. Sterile paper discs (6 mm i.d.) impregnated with the substance under test at a concentration of 50 μg disc^−1 were applied onto the surface of an agar plate (plastic Petri dish) inoculated with one strain with sterile forceps and gently pressed down to ensure good contact with the surface. Blank discs treated with the same volume of DMSO were added. A control disc, containing streptomycin was used. After the application of discs, the plates were incubated at 30° C. for 24 h, and then the size of the inhibition zone was measured.
# as §4, with “using” for “using an”, “assay.” for “assay method.”, “disc” for “disc,”, “h. The” for “h, and then the”, “measured. The results are presented in Table 8 and Table 9 for Cyclo (D)-Pro-(D)-Phe and b3-methyl-N-(2-phenylethyl)butanamide, respectively.” for “measured.”
# [4] = system: Shewanella algae; experiment: agar disc diffusion assay, inhibition zone; type: cell-based; conditions: 50 μg/disc, 30° C., 24 h, read-out: Inhibition Zone Width
# Description: as §4
# as §4, with “using” for “using an”, “assay.” for “assay method.”, “disc” for “disc,”, “h. The” for “h, and then the”, “measured. The results are presented in Table 8 and Table 9 for Cyclo (D)-Pro-(D)-Phe and b3-methyl-N-(2-phenylethyl)butanamide, respectively.” for “measured.”
# [5] = system: Pseudoalteromonas piscida; experiment: agar disc diffusion assay, inhibition zone; type: cell-based; conditions: 50 μg/disc, 30° C., 24 h, read-out: Inhibition Zone Width
# Description: as §4
# as §4, with “using” for “using an”, “assay.” for “assay method.”, “disc” for “disc,”, “h. The” for “h, and then the”, “measured. The results are presented in Table 8 and Table 9 for Cyclo (D)-Pro-(D)-Phe and b3-methyl-N-(2-phenylethyl)butanamide, respectively.” for “measured.”
# [6] = system: Pseudoalteromonas sp.; experiment: agar disc diffusion assay, inhibition zone; type: cell-based; conditions: 50 μg/disc, 30° C., 24 h, read-out: Inhibition Zone Width
# Description: as §4
# as §4, with “using” for “using an”, “assay.” for “assay method.”, “disc” for “disc,”, “h. The” for “h, and then the”, “measured. The results are presented in Table 8 and Table 9 for Cyclo (D)-Pro-(D)-Phe and b3-methyl-N-(2-phenylethyl)butanamide, respectively.” for “measured.”
# [7] = system: Moraxella phenylpyruvica; experiment: agar disc diffusion assay, inhibition zone; type: cell-based; conditions: Psychrobacter phenylpyruvicus; 50 μg/disc, 30° C., 24 h; read-out: Inhibition Zone Width
# Description: as §4
# as §4, with “using” for “using an”, “assay.” for “assay method.”, “disc” for “disc,”, “h. The” for “h, and then the”, “measured. The results are presented in Table 8 and Table 9 for Cyclo (D)-Pro-(D)-Phe and b3-methyl-N-(2-phenylethyl)butanamide, respectively.” for “measured.”
# [8] = system: Micrococcus luteus; experiment: agar disc diffusion assay, inhibition zone; type: cell-based; conditions: 50 μg/disc, 30° C., 24 h, read-out: Inhibition Zone Width
# Description: as §4
# as §4, with “using” for “using an”, “assay.” for “assay method.”, “disc” for “disc,”, “h. The” for “h, and then the”, “measured. The results are presented in Table 8 and Table 9 for Cyclo (D)-Pro-(D)-Phe and b3-methyl-N-(2-phenylethyl)butanamide, respectively.” for “measured.”
# [9] = system: Staphylococcus haemolyticus; experiment: agar disc diffusion assay, inhibition zone; type: cell-based; conditions: 50 μg/disc, 30° C., 24 h, read-out: Inhibition Zone Width
# Description: as §4
# as §4, with “using” for “using an”, “assay.” for “assay method.”, “disc” for “disc,”, “h. The” for “h, and then the”, “measured. The results are presented in Table 8 and Table 9 for Cyclo (D)-Pro-(D)-Phe and b3-methyl-N-(2-phenylethyl)butanamide, respectively.” for “measured.”
# [10] = system: Vibrio sp. (NAP-4); experiment: agar disc diffusion assay, inhibition zone; type: cell-based; conditions: 24 h, read-out: Inhibition Zone Width
# Description: as §4
# as §4, with “using” for “using an”, “assay.” for “assay method.”, “disc” for “disc,”, “h. The” for “h, and then the”, “measured. The results are presented in Table 8 and Table 9 for Cyclo (D)-Pro-(D)-Phe and b3-methyl-N-(2-phenylethyl)butanamide, respectively.” for “measured.”
# [11] = system: Vibrio harveyi; experiment: agar disc diffusion assay, inhibition zone; type: cell-based; conditions: 50 μg/disc, 30° C., 24 h, read-out: Inhibition Zone Width
# Description: as §4
# as §4, with “using” for “using an”, “assay.” for “assay method.”, “disc” for “disc,”, “h. The” for “h, and then the”, “measured. The results are presented in Table 8 and Table 9 for Cyclo (D)-Pro-(D)-Phe and b3-methyl-N-(2-phenylethyl)butanamide, respectively.” for “measured.”
# [12] = system: Loktanella hongkongensis; experiment: agar disc diffusion assay, inhibition zone; type: cell-based; conditions: Limimaricola hongkongensis, 24 h, read-out: Inhibition Zone Width
# Description: as §4, with “using” for “using an”, “assay.” for “assay method.”, “disc” for “disc,”, “h. The” for “h, and then the”, “measured. The results are presented in Table 8 and Table 9 for Cyclo (D)-Pro-(D)-Phe and b3-methyl-N-(2-phenylethyl)butanamide, respectively.” for “measured.”
# [13] = system: Vibrio vulnificus; experiment: agar disc diffusion assay, inhibition zone; type: cell-based; conditions: 24 h, read-out: Inhibition Zone Width
# Description: as §4, with “using” for “using an”, “assay.” for “assay method.”, “disc” for “disc,”, “h. The” for “h, and then the”, “measured. The results are presented in Table 8 and Table 9 for Cyclo (D)-Pro-(D)-Phe and b3-methyl-N-(2-phenylethyl)butanamide, respectively.” for “measured.”
# [14] = system: Vibrio halioticoli; experiment: agar disc diffusion assay, inhibition zone; type: cell-based; conditions: 24 h, read-out: Inhibition Zone Width
# Description: as §4, with “using” for “using an”, “assay.” for “assay method.”, “disc” for “disc,”, “h. The” for “h, and then the”, “measured. The results are presented in Table 8 and Table 9 for Cyclo (D)-Pro-(D)-Phe and b3-methyl-N-(2-phenylethyl)butanamide, respectively.” for “measured.”
# [15] = system: Rhodovulum sp.; experiment: agar disc diffusion assay, inhibition zone; type: cell-based; conditions: 24 h, read-out: Inhibition Zone Width
# Description: as §4, with “using” for “using an”, “assay.” for “assay method.”, “disc” for “disc,”, “h. The” for “h, and then the”, “measured. The results are presented in Table 8 and Table 9 for Cyclo (D)-Pro-(D)-Phe and b3-methyl-N-(2-phenylethyl)butanamide, respectively.” for “measured.”
# [16] = system: Vibrio alginolyticus; experiment: agar disc diffusion assay, inhibition zone; type: cell-based; conditions: 24 h, read-out: Inhibition Zone Width
# Description: as §4, with “using” for “using an”, “assay.” for “assay method.”, “disc” for “disc,”, “h. The” for “h, and then the”, “measured. The results are presented in Table 8 and Table 9 for Cyclo (D)-Pro-(D)-Phe and b3-methyl-N-(2-phenylethyl)butanamide, respectively.” for “measured.”
# [17] = system: Vibrio furnissii; experiment: agar disc diffusion assay, inhibition zone; type: cell-based; conditions: 24 h, read-out: Inhibition Zone Width
# Description: as §4, with “using” for “using an”, “assay.” for “assay method.”, “disc” for “disc,”, “h. The” for “h, and then the”, “measured. The results are presented in Table 8 and Table 9 for Cyclo (D)-Pro-(D)-Phe and b3-methyl-N-(2-phenylethyl)butanamide, respectively.” for “measured.”
# [18] = in vivo; conditions: Balanus amphitrite (barnacle) larvae, in vivo
# Description: as §1, §2, §3
# [19] = solubility in organic solvents; type: physicochemical; conditions: at 25° C. in methanol, ethanol, propanol, butanol, ethyl acetate acetone, chloroform, dichloromethane and acetonitrile
compound,measurement,setting,value
"O=C(O)CCC(=O)O [Compound 4, succinic acid]",therapeutic ratio LC50/EC50,[1]; in vivo,94.1
same,concentration showing anti-larval settlement effects,"[2]; tested range 60-140 μg ml^−1, 24 h",110 µg/mL
"CC(C)CC(=O)NCCc1ccccc1 [Compound 3, 3-methyl-N-(2-phenylethyl) butanamide]",zone of inhibition at 50 µg/disc,[3],0 mm
same,zone of inhibition at 50 µg/disc,[4],1.3 ± 0.6 mm
same,zone of inhibition at 50 µg/disc,[5],1.5 mm
same,zone of inhibition at 50 µg/disc,[6],0 mm
same,zone of inhibition at 50 µg/disc,[7],0 mm
same,zone of inhibition at 50 µg/disc,[8],3.3 ± 0.6 mm
same,zone of inhibition at 50 µg/disc,[9],0.5 mm
same,zone of inhibition at 50 µg/disc,[10],0 mm
same,zone of inhibition at 50 µg/disc,[11],0 mm
same,zone of inhibition at 50 µg/disc,[12],0.5 mm
same,zone of inhibition at 50 µg/disc,[13],1.2 ± 0.7 mm
same,zone of inhibition at 50 µg/disc,[14],0 mm
same,zone of inhibition at 50 µg/disc,[15],3 ± 0.5 mm
same,zone of inhibition at 50 µg/disc,[16],1.7 ± 0.6 mm
same,zone of inhibition at 50 µg/disc,[17],0 mm
same,therapeutic ratio LC50/EC50,[1]; Balanus amphitrite larvae,2.23
same,toxic symptoms,"[1]; at the concentration of 50 μg ml^−1, 24 h",did not induce any toxic symptoms
same,LC50 at 24 h,[18],81.4 µg/mL
same,solubility,[19],soluble
same,EC50,"[2]; Amphibalanus amphitrite, read-out: EC50 (anti-larval settlement)",36.5 µg/mL
